Measured values: US11999806B2, “Broad-spectrum polypeptide against enterovirus and application thereof” (WUHAN INSTITUTE OF VIROLOGY, CHINESE ACADEMY OF SCIENCES, priority 2018, dated 2024)
pIC50: −log10 of the molar value. Where “and” joins values, the source holds several entries; their conditions need not be identical. Equal values may be shown once. No end group written: not given here.

Key:
[1] = Cytotoxicity by CCK-8 in Vero cells; format: cell-based; details: 24 h, read-out: Cell viability (%)
Method: (§1) The experiment was performed as follows. • (1) Vero cells were plated in a 96-well plate at 100 μl per well. • (2) After the cells reached 70%-80% confluence, the MEM medium containing 10% serum was replaced with a MEM medium containing 2% serum. Then, polypeptide BP8, BP10 or BP15 was added to generate gradient concentrations of […], […], 12.5 μM, 25 μM, 50 μM, 100 μM, and 200 μM (final concentrations), respectively. • (3) The samples were collected 24 hours after the addition of the polypeptide, and 10 μl of live cell detection reagent CCK-8 was added to each well and mixed well. • (4) The plate was placed at 37° C. for 4 h. • (5) The absorbance value at OD450 was measured with a microplate reader.

[2] = test system: Vero cells; assay: Cytotoxicity by CCK-8 in Vero cells; format: cell-based; details: for Cell viability (%): 24 h; for cytotoxicity, result in words: CCK-8, 24 h
Method: as §1

[3] = Cytotoxicity by CCK-8 in RD cells; format: cell-based; details: human; for CC50 at 24 h: Table 1 summary, cell line not given, read-out: CC50
Method: (§2) The experiment was performed as follows. • (1) RD cells were plated in a 96-well plate at 100 μl per well. • (2) After the cells reached 70%-80% confluence, the MEM medium containing 10% serum was replaced with a MEM medium containing 2% serum. Then, polypeptide P2 was added to generate gradient concentrations of 0.01 μM, 0.1 μM, 1 μM, 10 μM, and 100 μM (final concentration), respectively. • (3) The test was performed 24 hours after the addition of the polypeptide, and 10 μl of viable cell detection reagent CCK-8 was added to each well and mixed well. • (4) The plate was incubated at 37° C. for 2 h. • (5) The absorbance value at OD450 was measured with a microplate reader.
as §2, with “P1” for “P2”, “concentrations),” for “concentration),”
(§3) RD cells were used to test the antiviral effect of polypeptide P1. When RD cells reached 80% confluence, polypeptide P1 was added at concentrations of 0 μM (control group), 0.01 μM, 0.1 μM, 1 μM, 10 μM, and 100 μM, respectively. Three parallel wells were used for each concentration. The test was carried out 24 hours later, and the cell viability was detected using the CCK-8 kit.
as §2, with “3A-TAT-EP” for “P2”, “concentrations),” for “concentration),”
as §3, with “3A-TAT-EP.” for “P1.”, “3A-TAT-EP” for “P1”
as §2, with “Then, 3A-EP-DRI or 3A-EP-PEG4-PA” for “Then, polypeptide P2”, “and 50” for “and 100”, “(final concentrations),” for “(final concentration),”
as §3, with “polypeptides 3A-EP-DRI and 3A-EP-PEG4-PA.” for “polypeptide P1.”, “3A-EP-DRI or 3A-EP-PEG4-PA” for “P1”, “50” for “100”, “kit. […]” for “kit.”

[4] = test system: RD cells; assay: Cytotoxicity by CCK-8 in RD cells; format: cell-based; details: RD cells; for Cell viability (%): 24 h, CCK-8 4 h (Example 18); for cytotoxicity, result in words: CCK-8, 24 h
Method: as §2
as §2, with “P1” for “P2”, “concentrations),” for “concentration),”
as §3
as §2, with “3A-TAT-EP” for “P2”, “concentrations),” for “concentration),”
as §3, with “3A-TAT-EP.” for “P1.”, “3A-TAT-EP” for “P1”
as §2, with “Then, 3A-EP-DRI or 3A-EP-PEG4-PA” for “Then, polypeptide P2”, “and 50” for “and 100”, “(final concentrations),” for “(final concentration),”
as §3, with “polypeptides 3A-EP-DRI and 3A-EP-PEG4-PA.” for “polypeptide P1.”, “3A-EP-DRI or 3A-EP-PEG4-PA” for “P1”, “50” for “100”, “kit. […]” for “kit.”

[5] = test system: CVB5; assay: Anti-CVB5 effect in RD cells, qRT-PCR; format: cell-based, Coxsackievirus B5; details: Example 20, read-out: IC50 against CVB5
Method: • (1) […] were plated in a 24-well cell plate. • (2) After the cells reached 70%-80% confluence, the MEM medium containing 10% serum was replaced with a MEM medium containing 2% serum (0.5 ml/well).

[6] = RD cells, 24 h, CCK-8 4 h (Example 18), read-out: Cell viability (%)

## CC(C)C[C@H](NC(=O)[C@H](Cc1c[nH]c2ccccc12)NC(=O)CNC(=O)[C@H](CCCCN)NC(=O)[C@H](CCC(=O)O)NC(=O)[C@H](CCCCN)NC(=O)[C@H](CS)NC(=O)[C@H](Cc1ccc(O)cc1)NC(=O)[C@H](CCC(=O)O)NC(=O)[C@H](CCCNC(=N)N)NC(=O)[C@@H](NC(=O)[C@H](C)NC(=O)[C@H](CCC(=O)O)NC(=O)CNC(=O)[C@H](CO)NC(=O)CNC(=O)[C@H](CCCNC(=N)N)NC(=O)[C@H](CCCNC(=N)N)NC(=O)[C@H](CCCNC(=N)N)NC(=O)[C@H](CCC(N)=O)NC(=O)[C@H](CCCNC(=N)N)NC(=O)[C@H](CCCNC(=N)N)NC(=O)[C@H](CCCCN)NC(=O)[C@H](CCCCN)NC(=O)[C@H](CCCNC(=N)N)NC(=O)CNC(=O)[C@@H](N)Cc1ccc(O)cc1)C(C)C)C(=O)N[C@H](C(=O)N1CCC[C@H]1C(=O)O)C(C)C [BP15]
[1]
  viability at 24 h, 3.0625 µM: 108%
  viability at 24 h, 6.125 µM: 125%
  viability at 24 h, 12.5 µM: 122%
  viability at 24 h, 25 µM: 116%
  viability at 24 h, 50 µM: 112%
  viability at 24 h, 100 µM: 75.8%
  viability at 24 h, 200 µM: 20%
[2]; 3.0625 μM
  Cell viability (%): 105.9733% and 109.128%
[2]; 6.125 μM
  Cell viability (%): 127.0907% and 124.0647%
[2]; 12.5 μM
  Cell viability (%): 120.3949% and 122.777%
[2]; 25 μM
  Cell viability (%): 111.0595% and 118.2059%
[2]; 50 μM
  Cell viability (%): 109.4499% and 102.9473%
[2]; 100 μM
  Cell viability (%): 87.11% and 76.81%
[2]; 200 μM
  Cell viability (%): 13.65% and 13.13% and 13.4559%
[2]
  cytotoxicity, result in words: not toxic to cells within 100 μM
[3]; [6]
  viability at 24 h, 3.0625 µM: 91%
  viability at 24 h, 6.125 µM: 104%
  viability at 24 h, 12.5 µM: 96.7%
  viability at 24 h, 25 µM: 96.7%
  viability at 24 h, 50 µM: 107%
  viability at 24 h, 100 µM: 96.3%
[3]
  CC50 at 24 h: > 100 µM
[4]; 3.0625 μM
  Cell viability (%): 85.77% and 91.09%
[4]; 6.125 μM
  Cell viability (%): 105.7678% and 97.72%
[4]; 12.5 μM
  Cell viability (%): 98.76% and 95.25%
[4]; 25 μM
  Cell viability (%): 92.912% and 95.05%
[4]; 50 μM
  Cell viability (%): 103.6251% and 100.2489%
[4]; 100 μM
  Cell viability (%): 99.4048% and 104.9237%
[4]
  cytotoxicity, result in words: not toxic to cells within 100 μM
[5]
  pIC50: 5.17

## YGRKKRRQRRRGSGEAVREYCKEK [BP10]
[1]
  viability at 24 h, 3.0625 µM: 107%
  viability at 24 h, 6.125 µM: 119%
  viability at 24 h, 12.5 µM: 122%
  viability at 24 h, 25 µM: 117%
  viability at 24 h, 50 µM: 109%
  viability at 24 h, 100 µM: 92.8%
  viability at 24 h, 200 µM: 83.1%
[2]; 3.0625 μM
  Cell viability (%): 106.2952% and 107.1965%
[2]; 6.125 μM
  Cell viability (%): 119.236% and 118.9785%
[2]; 12.5 μM
  Cell viability (%): 120.8456% and 123.9359%
[2]; 25 μM
  Cell viability (%): 117.3689% and 116.0169%
[2]; 50 μM
  Cell viability (%): 118.399% and 120.0086%
[2]; 100 μM
  Cell viability (%): 92.32% and 94.06%
[2]; 200 μM
  Cell viability (%): 86.72% and 82.22%
[2]
  cytotoxicity, result in words: not toxic to cells within 200 μM
[3]; [6]
  viability at 24 h, 3.0625 µM: 97.7%
  viability at 24 h, 6.125 µM: 98.5%
  viability at 24 h, 12.5 µM: 94.8%
  viability at 24 h, 25 µM: 109%
  viability at 24 h, 50 µM: 109%
  viability at 24 h, 100 µM: 107%
[3]; RD cells, 200 μM, 24 h, CCK-8 4 h (Example 18), read-out: Cell viability (%)
  viability at 24 h, 200 µM: 79.7%
[3]
  CC50 at 24 h: > 200 µM
[4]; 3.0625 μM
  Cell viability (%): 98.99% and 103.5309%
[4]; 6.125 μM
  Cell viability (%): 93.25% and 92.62%
[4]; 12.5 μM
  Cell viability (%): 97.35% and 100.8827%
[4]; 25 μM
  Cell viability (%): 99.56% and 96.2169%
[4]; 50 μM
  Cell viability (%): 115.4477% and 116.3934%
[4]; 100 μM
  Cell viability (%): 112.232% and 114.3758%
[4]; 200 μM
  Cell viability (%): 85.18% and 97.54%
[4]
  cytotoxicity, result in words: not toxic to cells within 200 μM
[5]
  pIC50: 5.87
